Consider eleven compounds from patent publication US20240368156A1, “2-AZABICYCLO[2.2.1]HEPTANE KRAS INHIBITORS” (INCYTE CORPORATION, priority 2023, published 2024).

One assay has as its target KRAS G12D (Homo sapiens, UniProt P01116, G12D). The assay is described as follows: GDP-GTP exchange assay (bodipy-GDP/GppNHp, SOS1), KRAS G12D. It counts as biochemical. The note with it: 2.5 nM bodipy-loaded KRAS G12D, 4 h pre-incubation, 2 h reaction with GppNHp and SOS1; for certain compounds the most potent isomer is quoted; read-out: KRAS_G12D exchange assay IC50. An outline of the steps: (§1)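 Bodipy-GDP-loaded KRAS G12D or G12V (2.5 nM) pre-incubated 4 h at r.t. with inhibitor in Hepes pH 7.5, 10 mM MgCl2, then exchange started with 500 μM GppNHp and 150 nM SOS1 (final); 2 h (G12D) or 3 h (G12V). Fluorescence at 485/520 nm; IC50 from four-parameter logistic fit.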

Another assay deals with KRAS G12V (Homo sapiens, UniProt P01116, G12V). As to the kind of experiment: GDP-GTP exchange assay (bodipy-GDP/GppNHp, SOS1), KRAS G12V. The class given is biochemical. The note with it: 2.5 nM bodipy-loaded KRAS G12V, 3 h incubation after adding GppNHp-SOS1; for certain compounds the most potent isomer is quoted; read-out: KRAS_G12V exchange assay IC50. An outline of the steps: as §1
Chain of KRAS G12V (P01116 1-188 isoform P01116-2 G12V): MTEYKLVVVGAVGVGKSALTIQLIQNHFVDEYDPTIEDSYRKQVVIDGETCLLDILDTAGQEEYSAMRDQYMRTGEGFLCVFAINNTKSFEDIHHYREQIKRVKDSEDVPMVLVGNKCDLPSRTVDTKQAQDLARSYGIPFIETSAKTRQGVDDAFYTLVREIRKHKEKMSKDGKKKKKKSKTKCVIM

SMILES strings stand for the structures. pIC50: −log10 of the molar value. Some results are limits rather than exact numbers.

Chain of KRAS G12D (P01116 1-188 isoform P01116-2 G12D): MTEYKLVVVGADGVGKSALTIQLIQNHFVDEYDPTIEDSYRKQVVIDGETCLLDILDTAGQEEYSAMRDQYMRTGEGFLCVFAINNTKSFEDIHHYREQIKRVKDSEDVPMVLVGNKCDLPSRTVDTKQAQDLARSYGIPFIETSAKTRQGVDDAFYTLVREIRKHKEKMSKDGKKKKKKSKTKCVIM

As to `Cc1nc2c(F)c(-c3cccc(Cl)c3Cl)c(CCC#N)cc2c2c1cc([C@H]1[C@H]3C[C@H](C[C@H]3O)N1C(=O)C1CC1)n2C1[C@H]2CN[C@@H]1C2` (stereo partly drawn) [Example 21, 3-(1-((1R,4R)-2-azabicyclo[2.1.1]hexan-5-yl)-2-((1R,3R,4R,5R)-2-(cyclopropanecarbonyl)-5-hydroxy-2-azabicyclo[2.2.1]heptan-3-yl)-7-(2,3-dichlorophenyl)-6-fluoro-4-methyl-1H-pyrrolo[3,2-c]quinolin-8-yl)propanenitrile], the negative logarithm of the IC50 (pIC50) on KRAS G12D and at KRAS G12V was 6.00 to 7.00 throughout.

Take `CO[C@@H]1C[C@H]2C[C@@H]1[C@H](c1cc3c(C)nc4c(F)c(-c5cccc(Cl)c5Cl)c(CCC#N)cc4c3n1C1[C@H]3CN[C@@H]1C3)N2C(=O)C1CC1` (stereo partly drawn) [Example 22, 3-(1-((1R,4R)-2-azabicyclo[2.1.1]hexan-5-yl)-2-((1R,3R,4R,5R)-2-(cyclopropanecarbonyl)-5-methoxy-2-azabicyclo[2.2.1]heptan-3-yl)-7-(2,3-dichlorophenyl)-6-fluoro-4-methyl-1H-pyrrolo[3,2-c]quinolin-8-yl)propanenitrile]: the pIC50 at KRAS G12D and at KRAS G12V was 6.00 to 7.00 each time.

Turning to `[2H]C([2H])([2H])O[C@H]1C[C@H]2C[C@@H]1[C@H](c1cc3c(C)nc4c(F)c(-c5cccc(Cl)c5Cl)c(CCC#N)cc4c3n1C1[C@H]3CN[C@@H]1C3)N2C(=O)C1CC1` (stereo partly drawn) [Example 23, 3-(1-((1R,4R)-2-azabicyclo[2.1.1]hexan-5-yl)-2-((1R,3R,4R,5S)-2-(cyclopropanecarbonyl)-5-(methoxy-d3)-2-azabicyclo[2.2.1]heptan-3-yl)-7-(2,3-dichlorophenyl)-6-fluoro-4-methyl-1H-pyrrolo[3,2-c]quinolin-8-yl)propanenitrile], the negative-log IC50 (pIC50) at KRAS G12D and on KRAS G12V was not below 7.00 in each case.

Take `Cc1nc2c(F)c(-c3cccc(Cl)c3Cl)c(CCC#N)cc2c2c1cc([C@H]1[C@H]3C[C@H]([C@@H]4C[C@@H]43)N1C(=O)C1CC1)n2C1C2CNC1C2` (stereo partly drawn) [Example 24, 3-(1-(2-azabicyclo[2.1.1]hexan-5-yl)-2-((1S,2S,4R,5R,7R)-6-(cyclopropanecarbonyl)-6-azatricyclo[3.2.1.02,4]octan-7-yl)-7-(2,3-dichlorophenyl)-6-fluoro-4-methyl-1H-pyrrolo[3,2-c]quinolin-8-yl)propanenitrile]: the pIC50 at KRAS G12D and on KRAS G12V was not below 7.00 each time.

Regarding `Cc1nc2c(F)c(-c3cccc(Cl)c3Cl)c(CCC#N)cc2c2c1cc([C@H]1[C@H]3CC[C@H](C3)N1C(=O)C1CC1)n2C1C2CNC1C2` (stereo partly drawn) [Example 25, 3-(1-(2-azabicyclo[2.1.1]hexan-5-yl)-2-((1R,3R,4S)-2-(cyclopropanecarbonyl)-2-azabicyclo[2.2.1]heptan-3-yl)-7-(2,3-dichlorophenyl)-6-fluoro-4-methyl-1H-pyrrolo[3,2-c]quinolin-8-yl)propanenitrile], the figures for the pIC50 at KRAS G12D and at KRAS G12V were 5.30 to 6.00 and 5.00 to 5.30, respectively.

As to `Cc1nc2c(F)c(-c3cccc(Cl)c3Cl)c(CCC#N)cc2c2c1cc([C@H]1[C@@H]3C[C@@H]([C@@H]4C[C@@H]43)N1C(=O)C1CC1)n2C1C2CNC1C2` (stereo partly drawn) [Example 26, 3-(1-(2-azabicyclo[2.1.1]hexan-5-yl)-2-((1R,2S,4R,5S,7R)-6-(cyclopropanecarbonyl)-6-azatricyclo[3.2.1.02,4]octan-7-yl)-7-(2,3-dichlorophenyl)-6-fluoro-4-methyl-1H-pyrrolo[3,2-c]quinolin-8-yl)propanenitrile], the pIC50 on KRAS G12D and at KRAS G12V was 5.00 to 5.30 each time.

Consider `Cc1nc2c(F)c(-c3cccc(Cl)c3Cl)c(CCC#N)cc2c2c1cc([C@H]1[C@H]3C[C@H](C[C@@H]3Oc3cccnc3)N1C(=O)C1CC1)n2C1[C@H]2CN[C@@H]1C2` (stereo partly drawn) [Example 27, 3-(1-((1R,4R)-2-azabicyclo[2.1.1]hexan-5-yl)-2-((1R,3R,4R,5S)-2-(cyclopropanecarbonyl)-5-(pyridin-3-yloxy)-2-azabicyclo[2.2.1]heptan-3-yl)-7-(2,3-dichlorophenyl)-6-fluoro-4-methyl-1H-pyrrolo[3,2-c]quinolin-8-yl)propanenitrile], for which the pIC50 at KRAS G12D and at KRAS G12V was not below 7.00 each time.

For `Cc1nc2c(F)c(-c3cccc(Cl)c3Cl)c(CCC#N)cc2c2c1cc([C@H]1[C@H]3C[C@H](C[C@@H]3Oc3ccccn3)N1C(=O)C1CC1)n2C1[C@H]2CN[C@@H]1C2` (stereo partly drawn) [Example 28, 3-(1-((1R,4R)-2-azabicyclo[2.1.1]hexan-5-yl)-2-((1R,3R,4R,5S)-2-(cyclopropanecarbonyl)-5-(pyridin-2-yloxy)-2-azabicyclo[2.2.1]heptan-3-yl)-7-(2,3-dichlorophenyl)-6-fluoro-4-methyl-1H-pyrrolo[3,2-c]quinolin-8-yl)propanenitrile], the pIC50 at KRAS G12D and on KRAS G12V was not below 7.00 in each case.

In the case of `Cc1nc2c(F)c(-c3cccc(Cl)c3Cl)c(CCC#N)cc2c2c1cc([C@H]1[C@H]3C[C@H](C[C@@H]3OCc3ccccc3)N1C(=O)C1CC1)n2C1[C@H]2CN[C@@H]1C2` (stereo partly drawn) [Example 29, 3-(2-((1R,3R,4R,5S)-5-(benzyloxy)-2-(cyclopropanecarbonyl)-2-azabicyclo[2.2.1]heptan-3-yl)-1-((1R,4R)-2-azabicyclo[2.1.1]hexan-5-yl)-7-(2,3-dichlorophenyl)-6-fluoro-4-methyl-1H-pyrrolo[3,2-c]quinolin-8-yl)propanenitrile], the pIC50 on KRAS G12D and on KRAS G12V was not below 7.00 in each case.

Regarding `Cc1nc2c(F)c(-c3cccc(Cl)c3Cl)c(CCC#N)cc2c2c1cc([C@H]1[C@H]3C[C@H](C[C@@H]3OC(F)F)N1C(=O)C1CC1)n2C1[C@H]2CN[C@@H]1C2` (stereo partly drawn) [Example 30, 3-((7R)-1-((1R,4R)-2-azabicyclo[2.1.1]hexan-5-yl)-2-((1R,3R,4R,5S)-2-(cyclopropanecarbonyl)-5-(difluoromethoxy)-2-azabicyclo[2.2.1]heptan-3-yl)-7-(2,3-dichlorophenyl)-6-fluoro-4-methyl-1H-pyrrolo[3,2-c]quinolin-8-yl)propanenitrile], the negative-log IC50 (pIC50) at KRAS G12D and on KRAS G12V was not below 7.00 throughout.

Take `Cc1nc2c(F)c(-c3cccc(Cl)c3Cl)c(CCC#N)cc2c2c1cc([C@H]1[C@H]3C[C@H](C[C@@H]3OC3CC3)N1C(=O)C1CC1)n2[C@H]1[C@H]2CN[C@@H]1C2` [Example 36, 3-(1-((1R,4R,5S)-2-Azabicyclo[2.1.1]hexan-5-yl)-2-((1R,3R,4R,5S)-2-(cyclopropanecarbonyl)-5-cyclopropoxy-2-azabicyclo[2.2.1]heptan-3-yl)-7-(2,3-dichlorophenyl)-6-fluoro-4-methyl-1H-pyrrolo[3,2-c]quinolin-8-yl)propanenitrile]: the pIC50 on KRAS G12D and on KRAS G12V was not below 7.00 in each case.
